Results from ChEMBL document CHEMBL3600294, “Synthesis, molecular docking and biological evaluation of 3-arylfuran-2(5H)-ones as anti-gastric ulcer agent” (Bioorg Med Chem, 2015).
In brackets after ≈: the same amount, converted by molar mass.

How the values were obtained:
[1] = molecular target: Urease subunit alpha/Urease subunit beta (Helicobacter pylori (strain ATCC 700392 / 26695) (Campylobacterpylori), UniProt P69996); assay: Inhibition of Helicobacter pylori urease assessed as ammonia production preincubated for 1.5 hrs by indophenol method
Chain of Urease subunit alpha/Urease subunit beta (P69996 whole entry): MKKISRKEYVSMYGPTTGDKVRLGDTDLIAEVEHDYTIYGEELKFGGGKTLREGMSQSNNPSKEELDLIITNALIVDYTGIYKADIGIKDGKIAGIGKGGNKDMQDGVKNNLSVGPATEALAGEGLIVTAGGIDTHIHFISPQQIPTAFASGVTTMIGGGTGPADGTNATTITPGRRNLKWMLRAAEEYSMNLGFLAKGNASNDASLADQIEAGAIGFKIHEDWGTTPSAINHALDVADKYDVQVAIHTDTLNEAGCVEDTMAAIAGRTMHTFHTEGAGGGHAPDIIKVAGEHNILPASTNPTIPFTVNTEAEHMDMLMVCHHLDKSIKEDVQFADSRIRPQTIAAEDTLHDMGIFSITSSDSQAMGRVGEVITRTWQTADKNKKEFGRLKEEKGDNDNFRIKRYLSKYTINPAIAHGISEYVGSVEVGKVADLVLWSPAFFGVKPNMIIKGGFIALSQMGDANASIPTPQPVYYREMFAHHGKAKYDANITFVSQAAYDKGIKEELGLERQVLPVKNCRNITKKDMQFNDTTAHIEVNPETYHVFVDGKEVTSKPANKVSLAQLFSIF
Chain of Urease subunit alpha/Urease subunit beta (P14916 whole entry, further chain): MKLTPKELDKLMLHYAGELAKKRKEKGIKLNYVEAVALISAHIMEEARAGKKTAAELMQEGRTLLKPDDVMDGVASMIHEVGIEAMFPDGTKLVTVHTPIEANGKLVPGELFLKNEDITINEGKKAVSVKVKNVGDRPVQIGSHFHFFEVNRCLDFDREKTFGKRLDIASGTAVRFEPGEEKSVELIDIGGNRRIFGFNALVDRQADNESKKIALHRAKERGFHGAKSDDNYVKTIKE

Helicobacter pylori = assay: Antibacterial activity against Helicobacter pylori ATCC 43504 after 24 hrs by microdilution broth method; assay type: functional; details: ATCC 43504, 24 h
[2] = Antioxidant activity assessed as DPPH radical scavenging activity incubated for 30 mins
[3] = Inhibition of Staphylococcus aureus TyrRS expressed in Escherichia coli using [ring-3,5-3H]-tyrosine preincubated for 10 mins assessed as aminoacylation by liquid scintillation counting

Row | IC50 [2] [µM] | SMILES | IC50 [1] [µM] | MIC50 (Helicobacter pylori) [µg/mL] | IC50 ([2]; DPPH radical solution) [µM] | IC50 [3] [µM]
1 | – | O=C1OCC(O)=C1c1ccccc1Cl | 68 | 36.7 (≈ 174 µM) | > 100 | –
2 | – | O=C1OCC(O)=C1c1ccccc1OCc1ccccc1 | 50 | 13.8 (≈ 48.9 µM) | > 100 | 2.5
3 | – | O=C1OCC(O)=C1c1cccc(C(F)(F)F)c1 | 64.4 | 28.2 (≈ 115 µM) | 110 | 17.5
4 | – | O=C1OCC(O)=C1c1cccc(Br)c1 | 81.8 | 24.5 (≈ 96.1 µM) | 11.2 | 13.1
5 | – | O=C1OCC(O)=C1c1ccc(Br)cc1 | > 100 | 61.3 (≈ 240 µM) | 16.8 | –
6 | – | O=C1OCC(O)=C1c1ccccc1F | 75 | 2.7 (≈ 13.9 µM) | > 100 | 1.9
7 | – | O=C1OCC(O)=C1c1ccc(Cl)cc1 | > 100 | 49.3 (≈ 234 µM) | 18.5 | –
8 | – | Cc1cccc(C2=C(O)COC2=O)c1 | 31.1 | 2.6 (≈ 13.7 µM) | 8.2 | 1.1
9 | – | O=C1OCC(O)=C1c1ccccc1 | 89 | 4.7 (≈ 26.7 µM) | 13.5 | 5.6
10 | – | Cc1ccc(C2=C(O)COC2=O)cc1 | > 100 | 15.2 (≈ 79.9 µM) | 12.3 | 8.6
11 | – | O=C1OCC(O)=C1c1ccc(Cl)c(Cl)c1 | > 100 | > 100 | 28.7 | –
12 | 12.1 | O=C1O[C@H]([C@@H](O)CO)C(O)=C1O [ASCORBIC ACID] | – | – | – | –
13 | – | O=C1OCC(O)=C1c1cccc(F)c1 | 62 | > 100 | 23.5 | 27.8
14 | – | O=C1OCC(OCCN2CCOCC2)=C1c1ccc(O)cc1 | – | – | – | 0.1
15 | – | O=C1OCC(O)=C1c1cccc(OCc2ccccc2)c1 | 77.5 | 31.7 (≈ 112 µM) | 31.5 | –
16 | – | O=C1OCC(O)=C1c1cccc(Cl)c1 | 45.3 | 36.7 (≈ 174 µM) | 16.5 | 15.4
17 | – | O=C1OCC(O)=C1c1ccc(OCc2ccccc2)cc1 | 10.5 | 52.1 (≈ 185 µM) | 34 | 30
18 | – | O=C1OCC(O)=C1c1ccc(F)cc1 | 40.6 | 27.7 (≈ 143 µM) | > 100 | –
19 | – | O=C1OCC(O)=C1c1ccc(Cl)cc1Cl | > 100 | > 100 | > 100 | –
20 | – | COc1ccc(C2=C(O)COC2=O)cc1OC | 36.5 | 46.2 (≈ 196 µM) | 20.4 | –
21 | – | CCOc1ccc(C2=C(O)COC2=O)cc1OCC | 91.7 | 72.5 (≈ 274 µM) | 23.4 | –
22 | – | CC1(C)S[C@@H]2[C@H](NC(=O)[C@H](N)c3ccc(O)cc3)C(=O)N2[C@H]1C(=O)O [AMOXICILLIN] | – | 0.8 (≈ 2.19 µM) | – | –
23 | – | Cc1ccccc1C1=C(O)COC1=O | 65 | 1.5 (≈ 7.89 µM) | 45.6 | 0.6
